Laboratory results published in the C3SDB collision cross section collection.
Where “and” joins values, the source holds several entries; their conditions need not be identical. Identical values can stand only once.

Assays:
[1] = instrument: DT, single field, calibrated with Agilent tune mix (Agilent)
[2] = instrument: DT, stepped-field
[3] = instrument: DT, single field
[4] = instrument: TW, calibrated with phosphatidylcholines (ESI+) and phosphatidylethanolamines (ESI-)

collision cross section (N2) ([1]; [M+H]+) [Å²]	collision cross section (N2) ([2]; [M+Na]+) [Å²]	collision cross section (N2) ([3]; [M+NH4]+)	SMILES	other results
–	–	331.34 Å² and 332.87 Å²	CC/C=C\C/C=C\C/C=C\C/C=C\C/C=C\CCCCCC(=O)OC[C@@H](COC(=O)CCCCCCCCCCCCCCCCC)OC(=O)CCCCCCC/C=C\C/C=C\CCCCC [TG(58:7)]	collision cross section (N2) ([3]; [M+Na]+): 331.1 Å²
287.1	294.8	–	CCCCC/C=C\C/C=C\C/C=C\CCCCC(=O)OC[C@H](COP(=O)(O)OCCN)OC(=O)CCCCCCCCCCC/C=C\C/C=C\CCCCC [PE(40:5)]	collision cross section (N2) ([1]; [M-H]-): 277.5 Å²; collision cross section (N2) ([4]; [M+H]+): 284.8 Å²; collision cross section (N2) ([4]; [M-H]-): 276.2 Å²
302	305.6	–	CCCCCCCCCCCCC=CC[C@@H](O)[C@H](COP(=O)([O-])OCC[N+](C)(C)C)NC(=O)CC=CCC=CCCCCCCCCCCCCCCCCC [SM(42:3)]	collision cross section (N2) ([1]; [M+HCOO]-): 299.5 Å²
–	–	316.06 Å²	CCCCC/C=C\C/C=C\C/C=C\C/C=C\CCCC(=O)OC[C@@H](COC(=O)CCCCCCC/C=C\CCCCCC)OC(=O)CCCC/C=C\C/C=C\C/C=C\CCCCC [TG(54:8)]	–
286.1	290.9	–	CCCCCCCCCCCCC=CC[C@@H](O)[C@H](COP(=O)([O-])OCC[N+](C)(C)C)NC(=O)CC=CCCCCCCCCCCCCCC [SM(36:2)]	–
–	–	347.61 Å²	CCCCCCCCC/C=C\CCCCCCCC(=O)OC[C@H](COC(=O)CCCCCCCCCCCCCCCCCCC)OC(=O)CCCCCCCCCCCCCCCCCCC [TG(59:1)]	–
–	286.6	–	CC/C=C\C/C=C\C/C=C\C/C=C\C/C=C\CCCC(=O)OC[C@H](COP(=O)(O)OCCN)OC(=O)CCC/C=C\C/C=C\C/C=C\C/C=C\CCCCC [PE(40:9)]	collision cross section (N2) ([1]; [M+Na]+): 283.1 Å²

Second part, the molecule before the results:

SMILES	collision cross section (N2) ([1]; [M+H]+) [Å²]	collision cross section (N2) ([2]; [M+Na]+) [Å²]	collision cross section (N2) ([3]; [M+NH4]+)	other results
CCCCC/C=C\C/C=C\CCCCCCCCCCCC(=O)O[C@H](COC(=O)CCCCCCCCCCCC)COP(=O)(O)OCCN [PE(35:2)]	275	281.3	–	collision cross section (N2) ([1]; [M-H]-): 264.9 Å²; collision cross section (N2) ([2]; [M+K]+): 282.5 Å²
CC/C=C\C/C=C\C/C=C\C/C=C\C/C=C\C/C=C\CCC(=O)O[C@@H](CO)COC(=O)CCCCCCC/C=C\CCCC [DG(36:7)]	–	–	252.3 Å²	–
CCCCCCCCCCCCCCCCCCCC(=O)O[C@@H](CO)COC(=O)CCCCCCCCCCC [DG(32:0)]	–	–	255.58 Å²	–
CCCCCCCCCC/C=C\CCCCCCCCCC(=O)O[C@H](COC(=O)CCCCCCCCCCC)COP(=O)(O)OCCN [PE(34:1)]	274.7	281.3	–	collision cross section (N2) ([1]; [M+Na]+): 281.2 Å²; collision cross section (N2) ([1]; [M-H]-): 263.5 Å²; collision cross section (N2) ([4]; [M+H]+): 272.8 Å²; collision cross section (N2) ([4]; [M-H]-): 262.8 Å²
CCCCC/C=C\C/C=C\C/C=C\C/C=C\CCCCCC(=O)O[C@@H](CO)COC(=O)CCCC/C=C\C/C=C\C/C=C\CCCCC [DG(40:7)]	–	–	266.8 Å² and 270.46 Å² and 267.84 Å²	–
CCCCCCCCCCCCCCCCCCC(=O)O[C@H](COC(=O)CCCCCCCCCCC)COP(=O)([O-])OCC[N+](C)(C)C [PC(31:0)]	–	–	–	collision cross section (N2) ([3]; [M+H]+): 278.69 Å²
CC/C=C\C/C=C\C/C=C\C/C=C\C/C=C\CCCC(=O)O[C@@H](CO)COC(=O)CCCCCCC/C=C\C/C=C\CCCC [DG(37:7)]	–	–	256.98 Å²	–
CCCCCCCCC/C=C\CCCCCCCC(=O)OC[C@@H](COC(=O)CCCCCCCCCCCCCCC)OC(=O)CCCCCCC/C=C\CCCCCCCCC [TG(54:2)]	–	–	–	collision cross section (N2) ([3]; [M+Na]+): 324.71 Å² and 326.86 Å²
CCCCC/C=C\C/C=C\CCCCCCCC(=O)O[C@@H](CO)COC(=O)CCCCCCCCCCCCC [DG(32:2)]	–	–	253.01 Å²	–
CCCCCCCCCCCCCCCCCCCCCCC=CCC(=O)OC[C@H](CO)OC(=O)CC=CCCCCCCCCCCCCCCCCCCCCCC [DG(52:2)]	–	–	319.62 Å²	–
CCC/C=C\C/C=C\CCCCCCCCCC(=O)O[C@H](COC(=O)CCCCCCCCCCCCC)COP(=O)([O-])OCC[N+](C)(C)C [PC(32:2)]	276.8	–	–	collision cross section (N2) ([2]; [M+K]+): 289.2 Å²; collision cross section (N2) ([4]; [M+H]+): 274 Å²
CCCCCCCCCCCCC=CC[C@@H](O)[C@H](COP(=O)([O-])OCC[N+](C)(C)C)NC(=O)CCCCCCCCCCCCCCCCCCCCCCCCCC [SM(45:1)]	–	–	–	collision cross section (N2) ([3]; [M+H]+): 315.31 Å²
